# Data published in patent publication US20210277015A1, “OGA INHIBITOR COMPOUNDS” (Janssen Pharmaceutica NV, priority 2018, published 2021).
# Legend:
# [1] = target: T1, recombinant human Meningioma Expressed Antigen 5 (MGEA5), also referred to as O-GlcNAcase (OGA) (Homo sapiens, UniProt O60502); experiment: OGA biochemical assay (inhibition of FM-GlcNAc hydrolysis, fluorescence); details: FM-GlcNAc substrate; for IC50: 6 h at room temperature, read-out: Enzymatic hOGA, pIC50 (converted); for Emax / Enzymatic Emax (%): maximal effect; for Emax: read-out: Enzymatic Emax (%)
# T1 construct: Full length OGA enzyme was purchased at OriGene (cat #TP322411); purchased OriGene TP322411
# T1 sequence (O60502 1-916): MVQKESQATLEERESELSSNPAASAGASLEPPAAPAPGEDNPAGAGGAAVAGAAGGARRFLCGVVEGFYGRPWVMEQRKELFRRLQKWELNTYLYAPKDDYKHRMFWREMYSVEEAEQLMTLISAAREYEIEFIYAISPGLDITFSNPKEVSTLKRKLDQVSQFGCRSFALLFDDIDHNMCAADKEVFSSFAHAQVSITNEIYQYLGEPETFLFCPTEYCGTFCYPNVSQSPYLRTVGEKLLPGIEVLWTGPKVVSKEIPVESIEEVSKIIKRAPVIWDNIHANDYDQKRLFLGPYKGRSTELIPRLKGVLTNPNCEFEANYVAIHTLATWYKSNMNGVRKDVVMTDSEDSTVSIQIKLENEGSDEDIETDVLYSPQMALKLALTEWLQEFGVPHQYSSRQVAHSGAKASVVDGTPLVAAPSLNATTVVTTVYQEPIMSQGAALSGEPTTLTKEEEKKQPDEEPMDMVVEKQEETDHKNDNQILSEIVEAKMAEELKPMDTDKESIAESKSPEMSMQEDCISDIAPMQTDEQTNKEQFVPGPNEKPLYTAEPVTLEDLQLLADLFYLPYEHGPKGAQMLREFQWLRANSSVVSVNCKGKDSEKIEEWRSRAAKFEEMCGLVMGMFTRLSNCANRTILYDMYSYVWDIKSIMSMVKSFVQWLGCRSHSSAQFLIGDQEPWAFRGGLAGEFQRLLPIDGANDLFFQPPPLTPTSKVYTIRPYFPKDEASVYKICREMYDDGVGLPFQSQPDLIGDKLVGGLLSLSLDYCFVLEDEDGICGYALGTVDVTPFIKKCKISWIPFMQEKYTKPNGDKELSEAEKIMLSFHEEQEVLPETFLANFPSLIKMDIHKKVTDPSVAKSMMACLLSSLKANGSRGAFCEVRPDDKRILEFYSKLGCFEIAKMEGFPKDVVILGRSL
# How it was run: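 Full-length human OGA (2 nM) pre-incubated 60 min at room temperature with compound, then FM-GlcNAc (100 µM final) added in citrate/phosphate buffer pH 7.2 with 0.005% Tween-20; 6 h at room temperature, stopped with carbonate pH 11.0. Fluorescein read at 485/538 nm; IC50 and Hill coefficient from curve fit.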
# OGA = target: T2, OGA (Homo sapiens, UniProt O60502); experiment: OGA cellular assay (ICC detection of O-GlcNAcylated proteins in HEK293 cells inducible for P301L mutant human Tau); type: cell-based; details: for Emax: HEK293, HEK293 cells inducible for P301L mutant human Tau; for Emax / Cellular Emax (%): maximum defined by Thiamet G at 200 uM; for EC50 / Cellular Emax (%) / Cellular hOGA; pEC50: HEK293 cells inducible for P301L mutant human Tau; for EC50 / Cellular hOGA; pEC50: 6 hours incubation, ICC O-GlcNAcylation; for EC50: read-out: Cellular hOGA, pEC50 (converted)
# T2 construct: endogenous in cells; host or cells: HEK293 cells inducible for P301L mutant human Tau (isoform 2N4R)
# T2 sequence (O60502 1-916): T1 sequence (O60502 1-916)
# Description: HEK293 cells inducible for P301L mutant human Tau (isoform 2N4R) were established at Janssen. Thiamet-G was used for both plate validation (high control) and as reference compound (reference EC50 assay validation). OGA inhibition is evaluated through the immunocytochemical (ICC) detection of O-GlcNAcylated proteins by the use of a monoclonal antibody (CTD110.6; Cell Signaling, #9875) detecting O-GlcNAcylated residues as previously described (Dorfmueller et al. 2010 Chemistry & biology, 17:1250). Inhibition of OGA will result in an increase of O-GlcNAcylated protein levels resulting in an increased signal in the experiment. Cell nuclei are stained with Hoechst to give a cell culture quality control and a rough estimate of immediate compounds toxicity, if any. ICC pictures are imaged with a Perkin Elmer Opera Phenix plate microscope and quantified with the provided software Perkin Elmer Harmony 4.1.
# Cells were propagated in DMEM high Glucose (Sigma, #D5796) following standard procedures. 2 days before the cell assay cells are split, counted and seeded in Poly-D-Lysine (PDL) coated 96-wells (Greiner, #655946) plate at a cell density of 12,000 cells per cm^2 (4,000 cells per well) in 100 μl of Assay Medium (Low Glucose medium is used to reduce basal levels of GlcNAcylation) (Park et al. 2014 The Journal of biological chemistry 289:13519). At the day of compound test medium from assay plates was removed and replenished with 90 μl of fresh Assay Medium. 10 μl of compounds at a 10 fold final concentration were added to the wells. Plates were centrifuged shortly before incubation in the cell incubator for 6 hours. DMSO concentration was set to 0.2%. Medium is discarded by applying vacuum. For staining of cells medium was removed and cells washed once with 100 μl D-PBS (Sigma, #D8537). From next step onwards unless other stated assay volume was always 50 μl and incubation was performed without agitation and at room temperature. Cells were fixed in 50 μl of a 4% paraformaldehyde (PFA, Alpha aesar, #043368) PBS solution for 15 minutes at room temperature. […] Before analysis samples were washed 2 times manually for 5 minutes in ICC base buffer.
# Imaging is performed using Perkin Elmer Phenix Opera using a water 20× objective and recording 9 fields per well. Intensity readout at 488 nm is used as a measure of O-GlcNAcylation level of total proteins in wells. To assess potential toxicity of compounds nuclei were counted using the Hoechst staining. IC50-values are calculated using parametric non-linear regression model fitting. As a maximum inhibition Thiamet G at a 200 uM concentration is present on each plate. In addition, a concentration response of Thiamet G is calculated on each plate.
IC50 [1],Emax [1],Emax (OGA),EC50 (OGA),Enzymatic Emax (%) [1],Cellular Emax (%) (OGA),Cellular hOGA; pEC50 (OGA),SMILES
20 nM,102%,79%,398 nM,–,–,–,Cc1cc(C[C@H]2CCN(C(C)c3cc4c(cc3F)OCCO4)C2)cc(C(F)(F)F)n1 (some centres unmarked) [Product 7]
2000 nM,–,–,> 1000 nM,87%,−5%,–,"Cc1cc(OC[C@]2(C)CCN([C@H](C)c3ccc4c(n3)OCCO4)C2)cc(C)n1 (single isomer, unassigned) [Product 100]"
5010 nM,70%,-5%,> 1000 nM,–,–,–,Cc1cc(CO[C@H]2CCN(C(C)c3ccc4c(n3)OCCO4)C2)cc(C)n1 (some centres unmarked) [Product 49]
79.4 nM,100%,–,–,–,47%,–,"COc1cc(C[C@@H]2CCN([C@H](C)c3ccc4c(n3)OCCO4)C2)cc(C)n1 (single isomer, unassigned) [Product 106]"
50.1 nM,99%,47%,> 1000 nM,–,–,–,COc1cc(C[C@H]2CN([C@H](C)c3ccc4c(n3)OCCO4)C[C@@H]2C)cc(C)n1 (stereo in doubt) [Product 121]
5.01 nM,101%,72%,100 nM,–,–,–,Cc1cc(C[C@@H]2CCN([C@@H](C)c3cc4c(cc3F)OCCO4)C2)cc(C)n1 [Product 45]
100 nM,100%,59%,631 nM,–,–,–,Cc1cc(OC[C@H]2CCN(C(C)c3nc4c(cc3F)OCCO4)C2)cc(C)n1 (mixture of isomers) [Product 119]
7940 nM,–,–,> 1000 nM,50%,−9%,–,"Cc1cc(O[C@@H]2CCN(C(C)c3ccc4c(n3)OCCO4)C2)cc(C)n1 (single isomer, unassigned) [Product 74]"
1.58 nM,–,–,18.6 nM,97%,94%,–,"Cc1cc(O[C@@H]2CCN(C(C)c3nc4c(cc3F)CCO4)C2)cc(C)n1 (single isomer, unassigned) [Product 19]"
> 10000 nM,–,–,–,13%,−4%,<6,"Cc1cc(OC[C@]2(C)CCN([C@H](C)c3ccc4c(n3)OCCO4)C2)cc(C)n1 (single isomer, unassigned) [Product 101]"
398 nM,–,–,–,93%,7%,<6,"Cc1cc(OC[C@]2(C)CCN([C@H](C)c3ccc4c(n3)OCCO4)C2)cc(C)n1 (single isomer, unassigned) [Product 102]"
> 10000 nM,40%,-3%,> 1000 nM,–,–,–,COc1cc(C[C@@H]2CN([C@@H](C)c3ccc4c(n3)OCCO4)C[C@H]2C)cc(C)n1 (stereo in doubt) [Product 124]
25.1 nM,–,–,200 nM,102%,83%,–,"COc1cc(C[C@H]2CCN(C(C)c3cc4c(cc3F)OCCO4)C2)cc(C)n1 (single isomer, unassigned) [Product 11]"
794 nM,–,–,> 1000 nM,99%,9%,–,"Cc1cc(O[C@H]2CCN(C(C)c3ccc4c(n3)OCCO4)C2)cc(C)n1 (single isomer, unassigned) [Product 71]"
251 nM,96%,14%,> 1000 nM,–,–,–,Cc1cc(C[C@@H]2CCN(C(C)c3ccc4c(n3)OCCO4)C2)nc(C)n1 (some centres unmarked) [Product 37]
126 nM,100%,45%,–,–,–,–,Cc1cc(C[C@H]2CCN(C(C)c3ccc4c(n3)OCCO4)C2)cc(C(F)(F)F)n1 (some centres unmarked) [Product 5]
158 nM,89%,48%,501 nM,–,–,–,Cc1cc(O[C@@H]2CCN(C(C)c3nc4c(cc3F)OCCO4)C2)ccn1 (some centres unmarked) [Product 125]
50.1 nM,103%,74%,126 nM,–,–,–,"Cc1cc(C[C@H]2CCN([C@@H](C)c3ccc4c(c3)OCC4)C2)cc(C)n1 (single isomer, unassigned) [Product 14]"
200 nM,96%,26%,> 1000 nM,–,–,–,CC(c1nc2c(cc1F)OCCO2)N1CC[C@@H](Oc2ccc(C(F)(F)F)nc2)C1 (some centres unmarked) [Product 127]
158 nM,100%,36%,> 1000 nM,–,–,–,COc1cc(C[C@H]2CN(C(C)c3ccc4c(n3)OCCO4)C[C@@H]2C)cc(C)n1 (mixture of isomers) [Product 120]
158 nM,98%,–,–,–,42%,–,"Cc1cc(O[C@@H]2CCN(C(C)c3nc4c(cc3F)CCO4)C2)cc(C)n1 (single isomer, unassigned) [Product 18]"
1580 nM,88%,–,> 1000 nM,–,−5%,–,"COc1cc(C[C@H]2CCN(C(C)c3cc4c(cc3F)OCCO4)C2)cc(C)n1 (single isomer, unassigned) [Product 10]"
794 nM,–,–,> 1000 nM,91%,6%,–,"Cc1cc(C[C@@H]2CCN([C@H](C)c3ccc4c(n3)OCCO4)C2)cc(C)n1 (single isomer, unassigned) [Product 105]"
631 nM,97%,9%,> 1000 nM,–,–,–,Cc1cc(OC[C@H]2CCN(C(C)c3ccc4c(n3)OCCO4)C2)cc(C)n1 (some centres unmarked) [Product 47]
15.8 nM,102%,68%,398 nM,–,–,–,COc1cc(C[C@@H]2CCN([C@@H](C)c3cc4c(cc3F)OCCO4)C2)cc(C)n1 [Product 43]
79.4 nM,103%,47%,> 1000 nM,–,–,–,Cc1cc(C[C@H]2CCN(C(C)c3ccc4c(c3)OCC4)C2)cc(C(F)(F)F)n1 (some centres unmarked) [Product 6]
200 nM,91%,45%,–,–,–,–,Cc1cc(O[C@@H]2CCN(C(C)c3nc4c(cc3F)OCCO4)C2)cnc1C (some centres unmarked) [Product 129]
